Source: patent publication US7683065B2, “Pyridines useful as modulators of ion channels” (Vertex Pharmaceuticals Incorporated, priority 2005, dated 2010)
Read-outs that look alike come from different tables or passages of the source.

Key:
neuropathic pain = conditions: in vivo; cited from earlier work
NaV1.3 = NaV1.3 (Homo sapiens, UniProt Q9NY46); conditions: read-out: TTX IC50; cited from earlier work
NaV1.8 [1] = target: T1, NaV1.8 (Homo sapiens, UniProt Q9Y5Y9); conditions: read-out: TTX IC50; cited from earlier work
NaV1.8 [2] = target: T1, NaV1.8; assay: Activity against NaV 1.8 channel (NaV inhibition assays, Table 4); format: cell-based
Protocol: Compounds of the invention are useful as antagonists of voltage-gated sodium ion channels. Antagonist properties of test compounds were assessed as follows. Cells expressing the NaV of interest were placed into microtiter plates. After an incubation period, the cells were stained with fluorescent dyes sensitive to the transmembrane potential. The test compounds were added to the microtiter plate. The cells were stimulated with either a chemical or electrical means to evoke a NaV dependent membrane potential change from unblocked channels, which was detected and measured with trans-membrane potential-sensitive dyes. Antagonists were detected as a decreased membrane potential response to the stimulus. The optical membrane potential assay utilized voltage-sensitive FRET sensors described by Gonzalez and Tsien (See Gonzalez, J. E. and R. Y. Tsien (1995) “Voltage sensing by fluorescence resonance energy transfer in single cells” Biophys J 69(4): 1272-80, and Gonzalez, J. E. and R. Y. Tsien (1997) “Improved indicators of cell membrane potential that use fluorescence resonance energy transfer” Chem Biol 4(4): 269-77) in combination with instrumentation for measuring fluorescence changes such as the Voltage/Ion Probe Reader (VIPR®) (See, Gonzalez, J. E., K. Oades, et al. (1999) “Cell-based assays and instrumentation for screening ion-channel targets” Drug Discov Today 4(9): 431439).
24 hours before the assay on VIPR, CHO cells endogenously expressing a NaV1.2 type voltage-gated NaV are seeded in 96-well poly-lysine coated plates at 60,000 cells per well. Other subtypes are performed in an analogous mode in a cell line expressing the NaV of interest. • 1) On the day of the assay, medium is aspirated and cells are washed twice with 225 μL of Bath Solution #2 (BS#2). • 2) A 15 uM CC2-DMPE solution is prepared by mixing 5 mM coumarin stock solution with 10% Pluronic 127 1:1 and then dissolving the mix in the appropriate volume of BS#2. • 3) After bath solution is removed from the 96-well plates, the cells are loaded with 80 μL of the CC2-DMPE solution. Plates are incubated in the dark for 30 minutes at room temperature. • 4) While the cells are being stained with coumarin, a […] oxonol solution in BS#2 is prepared. In addition to DiSBAC2(3), this solution should contain 0.75 mM ABSC1 and […] veratridine (prepared from 10 mM EtOH stock, Sigma #V-5754). • 5) After 30 minutes, CC2-DMPE is removed and the cells are washed twice with 225 μL of BS#2. […] The cells are then incubated for 20-30 minutes. • 7) Once the incubation is complete, the cells are ready to be assayed on VIPR® with a sodium addback protocol. […]
The following is an example of how NaV1.3 inhibition activity is measured using the optical membrane potential method#2. […]

Sequence of NaV1.3 (Q9NY46 whole entry, looked up): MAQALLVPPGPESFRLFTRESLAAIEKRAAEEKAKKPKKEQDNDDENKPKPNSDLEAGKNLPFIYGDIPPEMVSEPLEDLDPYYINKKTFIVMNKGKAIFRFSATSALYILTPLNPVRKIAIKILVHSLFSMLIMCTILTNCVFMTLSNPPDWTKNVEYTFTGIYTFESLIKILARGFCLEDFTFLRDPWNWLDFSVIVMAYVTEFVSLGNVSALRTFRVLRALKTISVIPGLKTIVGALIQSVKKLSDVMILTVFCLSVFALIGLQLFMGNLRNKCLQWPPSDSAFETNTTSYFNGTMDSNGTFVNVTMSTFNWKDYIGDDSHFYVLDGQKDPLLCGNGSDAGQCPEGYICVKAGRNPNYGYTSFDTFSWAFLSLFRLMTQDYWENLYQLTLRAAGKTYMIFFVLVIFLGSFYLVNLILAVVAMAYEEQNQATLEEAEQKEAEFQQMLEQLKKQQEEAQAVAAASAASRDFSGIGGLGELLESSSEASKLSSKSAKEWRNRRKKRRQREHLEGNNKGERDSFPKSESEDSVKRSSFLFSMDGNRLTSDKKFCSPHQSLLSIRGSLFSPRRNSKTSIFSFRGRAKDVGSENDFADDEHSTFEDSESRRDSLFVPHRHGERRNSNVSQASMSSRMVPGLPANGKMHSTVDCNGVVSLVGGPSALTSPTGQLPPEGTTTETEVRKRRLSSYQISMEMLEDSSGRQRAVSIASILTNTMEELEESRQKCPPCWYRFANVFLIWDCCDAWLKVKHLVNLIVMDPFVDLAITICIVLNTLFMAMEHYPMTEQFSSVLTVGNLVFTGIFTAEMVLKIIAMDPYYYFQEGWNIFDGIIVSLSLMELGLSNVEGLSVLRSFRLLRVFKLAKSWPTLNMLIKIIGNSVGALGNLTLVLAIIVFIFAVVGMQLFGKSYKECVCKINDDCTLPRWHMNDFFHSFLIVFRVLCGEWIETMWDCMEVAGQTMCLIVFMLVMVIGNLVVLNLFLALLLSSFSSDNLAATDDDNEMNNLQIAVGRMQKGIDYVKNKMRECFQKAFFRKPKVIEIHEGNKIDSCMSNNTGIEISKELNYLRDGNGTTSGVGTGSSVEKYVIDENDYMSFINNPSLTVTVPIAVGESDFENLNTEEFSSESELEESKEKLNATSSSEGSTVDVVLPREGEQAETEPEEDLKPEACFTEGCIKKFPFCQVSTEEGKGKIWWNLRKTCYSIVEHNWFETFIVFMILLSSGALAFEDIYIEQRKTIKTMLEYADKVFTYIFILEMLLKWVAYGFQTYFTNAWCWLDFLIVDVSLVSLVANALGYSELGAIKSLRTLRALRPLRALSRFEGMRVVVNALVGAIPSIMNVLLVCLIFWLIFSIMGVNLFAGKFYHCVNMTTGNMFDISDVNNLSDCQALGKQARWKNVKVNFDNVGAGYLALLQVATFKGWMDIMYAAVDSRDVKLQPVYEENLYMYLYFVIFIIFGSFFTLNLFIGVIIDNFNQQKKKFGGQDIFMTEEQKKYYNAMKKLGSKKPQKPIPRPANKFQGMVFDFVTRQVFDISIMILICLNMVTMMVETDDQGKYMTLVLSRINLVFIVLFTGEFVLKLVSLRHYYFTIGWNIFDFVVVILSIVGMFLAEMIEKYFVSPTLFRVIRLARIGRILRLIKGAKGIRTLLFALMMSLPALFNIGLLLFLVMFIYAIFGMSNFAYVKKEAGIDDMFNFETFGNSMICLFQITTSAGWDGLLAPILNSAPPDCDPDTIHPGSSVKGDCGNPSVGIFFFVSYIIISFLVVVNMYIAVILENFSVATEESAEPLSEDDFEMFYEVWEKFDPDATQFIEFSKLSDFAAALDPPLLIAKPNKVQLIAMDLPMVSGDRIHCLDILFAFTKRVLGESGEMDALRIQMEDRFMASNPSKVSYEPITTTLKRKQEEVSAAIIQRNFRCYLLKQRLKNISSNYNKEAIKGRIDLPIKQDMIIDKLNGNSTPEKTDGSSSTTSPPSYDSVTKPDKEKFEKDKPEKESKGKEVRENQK
T1 sequence (Q9Y5Y9 whole entry, looked up): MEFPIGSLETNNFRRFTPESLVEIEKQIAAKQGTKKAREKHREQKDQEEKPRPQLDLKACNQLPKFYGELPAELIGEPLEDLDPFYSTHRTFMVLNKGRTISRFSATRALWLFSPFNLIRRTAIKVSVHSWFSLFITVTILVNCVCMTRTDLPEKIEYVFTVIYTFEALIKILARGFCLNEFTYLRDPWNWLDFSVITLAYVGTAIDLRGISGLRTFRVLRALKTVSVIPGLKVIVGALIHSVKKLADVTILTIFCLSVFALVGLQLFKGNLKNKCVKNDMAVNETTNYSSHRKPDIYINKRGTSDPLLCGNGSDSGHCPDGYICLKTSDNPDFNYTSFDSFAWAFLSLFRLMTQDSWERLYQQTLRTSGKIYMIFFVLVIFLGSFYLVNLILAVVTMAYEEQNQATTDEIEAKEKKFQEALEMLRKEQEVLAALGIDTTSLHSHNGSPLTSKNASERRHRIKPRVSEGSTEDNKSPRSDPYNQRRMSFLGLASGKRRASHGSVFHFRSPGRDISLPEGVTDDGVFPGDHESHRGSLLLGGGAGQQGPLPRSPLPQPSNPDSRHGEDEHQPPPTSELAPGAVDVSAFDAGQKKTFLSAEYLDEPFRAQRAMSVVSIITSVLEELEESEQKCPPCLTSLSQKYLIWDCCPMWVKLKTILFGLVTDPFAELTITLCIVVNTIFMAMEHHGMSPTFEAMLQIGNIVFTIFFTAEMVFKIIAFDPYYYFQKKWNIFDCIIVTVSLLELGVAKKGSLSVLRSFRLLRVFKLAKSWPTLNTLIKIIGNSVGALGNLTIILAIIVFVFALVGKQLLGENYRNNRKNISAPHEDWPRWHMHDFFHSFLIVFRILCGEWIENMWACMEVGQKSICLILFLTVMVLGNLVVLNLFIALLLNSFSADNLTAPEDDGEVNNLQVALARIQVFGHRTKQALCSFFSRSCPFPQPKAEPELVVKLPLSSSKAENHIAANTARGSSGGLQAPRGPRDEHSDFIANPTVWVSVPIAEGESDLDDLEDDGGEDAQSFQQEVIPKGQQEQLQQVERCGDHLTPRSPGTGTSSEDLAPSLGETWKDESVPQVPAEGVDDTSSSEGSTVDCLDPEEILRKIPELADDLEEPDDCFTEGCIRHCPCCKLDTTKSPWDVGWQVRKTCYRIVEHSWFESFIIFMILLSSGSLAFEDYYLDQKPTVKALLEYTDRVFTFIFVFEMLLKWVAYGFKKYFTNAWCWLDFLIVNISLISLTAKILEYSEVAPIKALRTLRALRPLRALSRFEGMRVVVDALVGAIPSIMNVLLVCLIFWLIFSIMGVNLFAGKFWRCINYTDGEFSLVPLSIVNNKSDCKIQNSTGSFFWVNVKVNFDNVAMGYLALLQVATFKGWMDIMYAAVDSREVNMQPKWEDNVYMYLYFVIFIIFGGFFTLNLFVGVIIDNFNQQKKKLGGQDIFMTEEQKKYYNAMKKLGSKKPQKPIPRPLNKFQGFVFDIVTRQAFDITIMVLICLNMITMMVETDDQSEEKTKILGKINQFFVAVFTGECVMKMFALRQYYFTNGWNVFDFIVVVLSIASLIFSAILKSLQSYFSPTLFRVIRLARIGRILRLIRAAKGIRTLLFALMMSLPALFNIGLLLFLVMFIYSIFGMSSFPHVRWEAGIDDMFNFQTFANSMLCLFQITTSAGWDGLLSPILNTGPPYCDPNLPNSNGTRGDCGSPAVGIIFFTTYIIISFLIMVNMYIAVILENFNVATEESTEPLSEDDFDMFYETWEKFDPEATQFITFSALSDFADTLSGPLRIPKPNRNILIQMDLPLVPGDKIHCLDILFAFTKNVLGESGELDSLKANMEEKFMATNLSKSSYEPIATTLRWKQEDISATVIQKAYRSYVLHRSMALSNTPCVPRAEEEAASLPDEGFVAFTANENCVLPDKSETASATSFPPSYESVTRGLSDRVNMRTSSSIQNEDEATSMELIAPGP

SMILES | IC50 (NaV1.8 [2]) [µM] | further results
NCC1(CC(=O)O)CCCCC1 [Gabapentin] | – | share of patients in whom it works (neuropathic pain): 60%
NC1=N[C@H](O)[C@H]2[C@H]3O[C@]4(O)O[C@@H]([C@@H](O)[C@@]2(N1)[C@@H]4O)[C@]3(O)CO [TTX, tetrodotoxin] | – | IC50 (NaV1.3): 0.015 µM; IC50 (NaV1.8 [1]): > 50 µM
CC(C)COC(=O)N1CCN(c2ccnc(-c3ccccc3O)c2)CC1 [Compound 1, Isobutyl 4-(2-(2-hydroxyphenyl)pyridin-4-yl)piperazine-1-carboxylate] | > 15 | –
CC(C)C[C@@H](O)C(=O)N1CCN(c2cccc(-c3ccccc3O)n2)CC1 [Compound 4, (R)-2-hydroxy-1-(4-(6-(2-hydroxyphenyl)pyridin-2-yl)piperazin-1-yl)-4-methylpentan-1-one] | < 10 | –
CC(C)COC(=O)N1CCN(c2cccc(-c3ccccc3O)n2)CC1 [Compound 3, 4-[6-(2-hydroxyphenyl)-2-pyridyl]piperazine-1-carboxylic acid isobutyl ester] | 10 to 15 | –
CC(C)COC(=O)N1CCN(c2cc(-c3ccccc3O)ccn2)CC1 [Compound 5, Isobutyl-4-[4′-(2-hydroxyphenyl)-pyridin-2′-yl]-piperazine-1-carboxylate] | > 15 | –
